assay: Inhibition EGF-dependent mitogenesis of mouse BaF/ERX cells by [3H]thymidine incorporation assay; assay type: functional, cell-based

Compound | IC50 [µM]
COc1ccc(-c2nc(NC(=O)NCc3ccccc3)sc2-c2ccc(OC)cc2)cc1 | > 75
CN1C(=O)N=C(Nc2nc(-c3ccccc3)c(Cc3ccc(O)cc3)s2)C1=O | 25
COc1ccc(Cc2nc(NC3=NC(=O)N(C)C3=O)n(C)c2Cc2ccc(O)cc2)cc1 | 3
COc1ccc(-c2nc(N)sc2-c2ccc(OC)cc2)cc1 | > 75
COc1ccc(-c2nc(NC(=O)[C@H](C)N)sc2-c2ccc(OC)cc2)cc1 | 12
Nc1nc(-c2ccc(O)cc2)c(-c2ccc(O)cc2)s1 | > 75
COc1ccc(Cc2nc(N)sc2Cc2ccc(O)cc2)cc1 | 18
Nc1nc(-c2ccccc2)c(-c2ccccc2)s1 | > 75
CN1C(=O)N=C(Nc2nc(-c3ccccc3)c(-c3ccccc3)s2)C1=O | > 75
COc1ccc(Cc2nc(NC3=NC(=O)N(C)C3=O)sc2Cc2ccc(O)cc2)cc1 | 10
CN1C(=O)N=C(Nc2nc(-c3ccc(Cl)cc3)c(Cc3ccc(O)cc3)s2)C1=O | 15
CN1C(=O)N=C(Nc2nc(-c3ccc(O)cc3)c(-c3ccc(O)cc3)s2)C1=O | 5
Nc1nc(-c2ccccc2)c(Cc2ccc(O)cc2)s1 | 50
CN1C(=O)N=C(Nc2ncc(Cc3ccc(O)cc3)n2C)C1=O | 4
CN1C(=O)N=C(Nc2nc(Cc3ccc(OCc4ccccc4)cc3)c(Cc3ccc(O)cc3)s2)C1=O | > 75
COc1ccc(Cc2[nH]c(=N)n(C)c2Cc2ccc(O)cc2)cc1 [NAAMINE A] | 75
COc1ccc(-c2nc(NC3=NC(=O)N(C)C3=O)sc2-c2ccc(OC)cc2)cc1 | 50

assay: Inhibition IL3-dependent mitogenesis of mouse BaF/ERX cells by [3H]thymidine incorporation assay; assay type: functional, cell-based

Compound | IC50 [µM]
COc1ccc(Cc2[nH]c(=N)n(C)c2Cc2ccc(O)cc2)cc1 [NAAMINE A] | 75
COc1ccc(-c2nc(NC3=NC(=O)N(C)C3=O)sc2-c2ccc(OC)cc2)cc1 | 10
